Values quoted from earlier work as cited in patent publication US9474689B2, “Delamination resistant pharmaceutical glass containers containing active pharmaceutical ingredients” (Corning Incorporated, priority 2011, dated 2016).

Key:
[1] = system: Enterobacteriaceae; details: in vitro
[2] = system: P. aeruginosa; details: against P. aeruginosa
[3] = system: soluble and transmembrane forms of TNFα
[4] = target: T1, TNFβ (lymphotoxin-α) (Homo sapiens, UniProt P01374)
T1 sequence (P01374 35-205): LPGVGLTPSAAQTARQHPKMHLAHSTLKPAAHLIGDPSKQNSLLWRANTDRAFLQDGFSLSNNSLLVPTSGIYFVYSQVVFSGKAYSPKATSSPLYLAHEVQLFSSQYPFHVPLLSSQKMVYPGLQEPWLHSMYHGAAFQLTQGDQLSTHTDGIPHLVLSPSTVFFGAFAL

Chain of soluble and transmembrane forms of TNFα (P01375 77-233 limits assumed): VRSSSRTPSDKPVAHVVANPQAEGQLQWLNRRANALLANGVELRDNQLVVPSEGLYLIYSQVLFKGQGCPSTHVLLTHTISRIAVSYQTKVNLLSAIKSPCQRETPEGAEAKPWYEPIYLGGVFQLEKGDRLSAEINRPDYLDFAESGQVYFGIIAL

Row | Compound | activity against Enterobacteriaceae [1] | protein binding | post-antibiotic effects in vitro [2] | binding affinity to TNFα [3] | neutralization of TNFβ [4]
1 | C[C@@H](O)[C@H]1C(=O)N2C(C(=O)O)=C(S[C@@H]3CN[C@H](CNS(N)(=O)=O)C3)[C@H](C)[C@H]12 [Doripenem, doripenem] | excellent activity | low protein binding | about two hours | – | –
2 | Infliximab: chimeric IgG1κ monoclonal antibody specific for human tumor necrosis factor-alpha | – | – | – | high affinity | does not neutralize
